# What was measured:
# Set-up in all cases: dose 20 mg/kg, route intravenous
# Conditions in all cases: in vivo
# [1] = Drug level in New Zealand white rabbit nucleus pulposus assessed as [14C]dalbavancin level per gram of tissue at 20 mg/kg, iv after 24 hrs by liquid scintillation counting method; type: ADME, organism-based, Oryctolagus cuniculus
# [2] = tested on: Blood; assay: Drug level in New Zealand white rabbit blood assessed as [14C]dalbavancin level per gram of tissue at 20 mg/kg, iv after 168 hrs by autoradioluminography; type: ADME, organism-based, Oryctolagus cuniculus
# [3] = tested on: Oryctolagus cuniculus; assay: Plasma concentration in New Zealand white rabbit assessed as [14C]dalbavancin level per gram of tissue at 20 mg/kg, iv after 24 hrs by liquid scintillation counting method; type: ADME, organism-based
# [4] = Drug level in New Zealand white rabbit bone assessed as [14C]dalbavancin level per gram of tissue at 20 mg/kg, iv after 12 hrs by liquid scintillation counting method; type: ADME, organism-based, Oryctolagus cuniculus, Bone element
# [5] = Drug level in New Zealand white rabbit skeletal muscle assessed as [14C]dalbavancin level per gram of tissue at 20 mg/kg, iv after 72 hrs by autoradioluminography; type: ADME, organism-based, Oryctolagus cuniculus
# [6] = Drug level in New Zealand white rabbit articular cartilage assessed as [14C]dalbavancin level per gram of tissue at 20 mg/kg, iv after 12 hrs by autoradioluminography; type: ADME, organism-based, Oryctolagus cuniculus
# [7] = Drug level in New Zealand white rabbit articular cartilage assessed as [14C]dalbavancin level per gram of tissue at 20 mg/kg, iv after 168 hrs by autoradioluminography; type: ADME, organism-based, Oryctolagus cuniculus
# [8] = Drug level in New Zealand white rabbit skeletal muscle assessed as [14C]dalbavancin level per gram of tissue at 20 mg/kg, iv after 120 hrs by autoradioluminography; type: ADME, organism-based, Oryctolagus cuniculus
# [9] = Drug level in New Zealand white rabbit compact bone assessed as [14C]dalbavancin level per gram of tissue at 20 mg/kg, iv after 24 hrs by autoradioluminography; type: ADME, organism-based, Oryctolagus cuniculus, Bone element
# [10] = Drug level in New Zealand white rabbit synovial space assessed as [14C]dalbavancin level per gram of tissue at 20 mg/kg, iv after 24 hrs by autoradioluminography; type: ADME, organism-based, Oryctolagus cuniculus
smiles,measurement,setting,value
CN[C@H]1C(=O)N[C@@H]2Cc3ccc(cc3)Oc3cc4cc(c3O[C@@H]3O[C@H](C(=O)O)[C@@H](O)[C@H](O)[C@H]3NC(=O)CCCCCCCCC(C)C)Oc3ccc(cc3Cl)[C@@H](O)[C@@H]3NC(=O)[C@H](NC(=O)[C@@H]4NC(=O)[C@@H](NC2=O)c2cc(cc(O)c2Cl)Oc2cc1ccc2O)c1ccc(O)c(c1)-c1c(O[C@H]2O[C@H](CO)[C@@H](O)[C@H](O)[C@@H]2O)cc(O)cc1[C@@H](C(=O)NCCCN(C)C)NC3=O [DALBAVANCIN],Drug uptake,[1],0.76 µg/g
same,Drug uptake,[2],5.33 µg/g
same,Cp,[3],19.3 µg/g
same,Drug uptake,[4],7.04 µg
same,Drug uptake,[5],1.25 µg
same,Drug uptake,[6],25.1 µg/g
same,Drug uptake,[7],7.48 µg/g
same,Drug uptake,[8],0.99 µg/g
same,Drug uptake,[9],1.56 µg/g
same,Drug uptake,[10],4.25 µg

# Source: ChEMBL document CHEMBL1155172, “Distribution of radioactivity in bone and related structures following administration of [14C]dalbavancin to New Zealand white rabbits” (Antimicrob Agents Chemother, 2007)
